{
  "source": "the supplement of paper PMC10307832",
  "test_in_all_cases": "relative viability (nuclei count vs DMSO), 5 days (fraction); higher = more cells survive",
  "key": {"Masitinib + Palbociclib": {"compound": "Cc1ccc(NC(=O)c2ccc(CN3CCN(C)CC3)cc2)cc1Nc1nc(-c2cccnc2)cs1 [Masitinib] + CC(=O)c1c(C)c2cnc(Nc3ccc(N4CCNCC4)cn3)nc2n(C2CCCC2)c1=O [Palbociclib] (partner 0.5 µM)", "outline": "(§1)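 Dosing by pin tool came one day after lung cancer cell lines were seeded in 1536-well plates, using either one drug or a fixed anchor-drug dose plus five library-drug doses (not always all listed) in √10 steps. After 5 days, nuclei were counted on 4× images. Relative viability is treated-well nuclei count divided by vehicle-well nuclei count, and values are medians of duplicate plates.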"}, "[1]": {"compound": "CC1=CC(=CC=C1)NC2=NC(=CS2)C3=CC=NC=C3 + O=C(c1cc(Cc2n[nH]c(=O)c3ccccc23)ccc1F)N1CCN(C(=O)C2CC2)CC1 [Olaparib] (partner 8 µM)", "outline": "as §1"}, "Masitinib + Lapatinib": {"compound": "Cc1ccc(NC(=O)c2ccc(CN3CCN(C)CC3)cc2)cc1Nc1nc(-c2cccnc2)cs1 [Masitinib] + CS(=O)(=O)CCNCc1ccc(-c2ccc3ncnc(Nc4ccc(OCc5cccc(F)c5)c(Cl)c4)c3c2)o1 [Lapatinib] (partner 2 µM)", "outline": "as §1"}, "Masitinib + Navitoclax": {"compound": "Cc1ccc(NC(=O)c2ccc(CN3CCN(C)CC3)cc2)cc1Nc1nc(-c2cccnc2)cs1 [Masitinib] + CC1(C)CCC(c2ccc(Cl)cc2)=C(CN2CCN(c3ccc(C(=O)NS(=O)(=O)c4ccc(N[C@H](CCN5CCOCC5)CSc5ccccc5)c(S(=O)(=O)C(F)(F)F)c4)cc3)CC2)C1 [Navitoclax] (partner 0.5 µM)", "outline": "as §1"}},
  "data": [
    {"cell line": "UMC-11", "values": [
      {"measurement": "relative viability", "setting": "Masitinib + Palbociclib; first compound 0.01 µM", "value": 0.323},
      {"measurement": "relative viability", "setting": "Masitinib + Palbociclib; first compound 0.03162 µM", "value": 0.384},
      {"measurement": "relative viability", "setting": "Masitinib + Palbociclib; first compound 0.1 µM", "value": 0.319},
      {"measurement": "relative viability", "setting": "Masitinib + Palbociclib; first compound 0.3162 µM", "value": 0.351},
      {"measurement": "relative viability", "setting": "Masitinib + Palbociclib; first compound 1 µM", "value": 0.304},
      {"measurement": "relative viability", "setting": "[1]; first compound 0.08 µM", "value": 0.339},
      {"measurement": "relative viability", "setting": "[1]; first compound 0.253 µM", "value": 0.386},
      {"measurement": "relative viability", "setting": "[1]; first compound 0.8 µM", "value": 0.381},
      {"measurement": "relative viability", "setting": "[1]; first compound 2.53 µM", "value": 0.806},
      {"measurement": "relative viability", "setting": "[1]; first compound 8 µM", "value": 0.402},
      {"measurement": "relative viability", "setting": "Masitinib + Lapatinib; first compound 0.01 µM", "value": 0.82},
      {"measurement": "relative viability", "setting": "Masitinib + Lapatinib; first compound 0.03162 µM", "value": 0.914},
      {"measurement": "relative viability", "setting": "Masitinib + Lapatinib; first compound 0.1 µM", "value": 0.979},
      {"measurement": "relative viability", "setting": "Masitinib + Lapatinib; first compound 0.3162 µM", "value": 1.06},
      {"measurement": "relative viability", "setting": "Masitinib + Lapatinib; first compound 1 µM", "value": 1.05},
      {"measurement": "relative viability", "setting": "Masitinib + Navitoclax; first compound 0.01 µM", "value": 0.286},
      {"measurement": "relative viability", "setting": "Masitinib + Navitoclax; first compound 0.03162 µM", "value": 0.321},
      {"measurement": "relative viability", "setting": "Masitinib + Navitoclax; first compound 0.1 µM", "value": 0.353},
      {"measurement": "relative viability", "setting": "Masitinib + Navitoclax; first compound 0.3162 µM", "value": 0.338},
      {"measurement": "relative viability", "setting": "Masitinib + Navitoclax; first compound 1 µM", "value": 0.353}
    ]}
  ]
}
